According to patent publication US6875759B1, “Substituted guanidines and the use thereof” (Kadmus Pharmaceuticals, priority 1999, dated 2005):

Key:
[1] = system: human pancreatic cancer (HS766T) cells; assay type: in vivo; details: daily i.p. for five days
From the text: FIG. 2B is a bar graph which depicts the effect of the compound of Example 8 on human pancreatic cancer in BDF/1 mice using the sub-renal capsule assay.
Human cancer cells can be grown in the sub-renal capsule of immuno-competent mice where, for a limited period of time, they escape detection by the mouse's immune system. Thus, the sub-renal capsule assay provides a convenient system to study the effect of drugs on the growth of tumor cells in vivo (Bogden, A. E., et al., Exp. Cell Biol. 47:281 (1979)). Briefly, female BDF mice weighing 18-20g were anesthetized, the left kidney exteriorized and a small nick was made in the kidney capsule for implantation of tumor cells. Approximately 1×10^6 human prostate (DU14) or pancreatic cancer (HS766T) cells were prepared as a fibrinogen-jelled pellet (Stratton, J. A., et al., Gynecol. Oncol. 19:336 (1984); Stratton, J. A., et al., Gynecol. Oncol. 30:416 (1988)) and implanted beneath the renal capsule. […] One day after the final injection, the animals were killed and the tumor volume was measured. Tumor growth was determined by subtracting the initial size of the implant from the size of the implant size following treatment (Stratton, J. A., et al., Gynecol Oncol. 19:336 (1984); Stratton, J. A., et al., Gynecol. Oncol. 30:416 (1988)).

[2] = system: normal human endothelial cells (AH-9); assay: In vitro cytotoxicity, MTS assay, normal endothelial cells; assay type: cell-based; details: AH-9 normal endothelial cells; separate experiment (FIG. 1); seven days; read-out: EC50 cytotoxic activity
Experimental: FIG. 1 is a graph which compares the effects of the compound of Example 8 on normal human endothelial cells (AH-9) and human prostate cancer cells (DU145). Cells were exposed to the compound for seven days at the concentrations indicated. Cytotoxicity was assessed using the MTS assay.
In a separate experiment (FIG. 1), normal human endothelial cells (AH-9) and human prostate cancer cells (DU145) were exposed to increasing concentrations of the compound of Example 8 for seven days.

[3] = system: breast cancer cell line HS578T; assay: In vitro cytotoxicity, MTS assay, breast cancer cells; assay type: cell-based, human; details: 7 days exposure, dose causing death to 50% of cells, read-out: Cell Survival ED 50 Breast
Experimental: (§1) In these experiments, cells were seeded at 400 cells per well 24 hours prior to addition of the test compound. Cells were grown at 37° C. in a humidified atmosphere of 95% air, 5% CO2 for 7 days with daily media changes. Cytotoxicity was assessed using the CellTiter 96 Aqueous Proliferation Assay (Promega, Madison, Wis.).

caspase-3 (CPP-32) = assay: Caspase-3 activation, western blot of cytosolic fractions; assay type: cell-based, human; details: breast cancer cells (HS578-T); 25 μM; 0-240 minutes
Experimental: FIG. 6 is an immunoblot illustrating the activation of caspase 3 in human breast cancer cells (HS578-T) exposed to 25 μM of the compound of Example 8. Cells were exposed to the compound for 0, 30, 60, 90, 150, and 240 minutes of treatment with peak activity occurring 90 minutes after drug addition.
When cells are induced to undergo apoptosis the cell death effector, caspase-3 (CPP-32), is cleaved and activated by proteolytic enzymes.

[4] = system: human prostate (DU145) cancer cells; assay: Mitochondrial membrane depolarization, JC-1 flow cytometry, prostate cancer cells; assay type: cell-based; details: 25 μM, five hours following drug exposure
Experimental: FIGS. 5D-5F illustrate the effects of compound of Example 8 on human prostate cancer cells (DU145). Mitochondrial membrane depolarization was assessed by flow cytometry as measured by the fluorescence of cation, JC-1. Cells were exposed to 25 μM of the compound and fluorescence measured at: 0 hours (FIG. 5D), 2.5 hours (FIG. 5E) and 4.5 hours (FIG. 5F).
(§2) Mitochondrial membrane depolarization is an early event in apoptosis. […] These early changes in mitochondrial function can be detected using a fluorescent cation, JC-1, that emits a red color when sequestered in the mitochondria of healthy cells, or a green color when localized to the cytoplasm.
(§3) Human breast (HS578-T) and prostate (DU145) cancer cells were exposed to 25 μM of the compound of Example 8 for varying lengths of times. Both cell lines lost the capacity to sequester JC-1 in the mitochondrial compartment as indicated by a time-dependent increase in green vs. red fluorescence (FIGS. 5A-5F). In an attempt to better quantitate the results of these experiments, the scans were divided into quadrants. At time 0, greater than 90% of the dye was localized in the mitochondria in both breast and prostate cancer cells. By five hours following drug exposure, the mitochondria from the prostate and breast cells contained only 33% and 22% of the dye, respectively.

[5] = system: pancreas cancer cell line HS766T; assay: In vitro cytotoxicity, MTS assay, pancreas cancer cells; assay type: cell-based, human; details: 7 days exposure, dose causing death to 50% of cells, read-out: Cell Survival ED 50 Pancreas
Experimental: as §1

[6] = system: HS578T breast cancer cells; assay: DNA fragmentation, TUNEL assay by flow cytometry; assay type: cell-based, human; details: 12.5 or 25 μM for 24 hours
Experimental: FIGS. 4A-4C illustrate the effects of compound of Example 8 on HS578-T breast carcinoma cells. Cells were exposed to the compound at zero μM (FIG. 4A), 12.5 μM (FIG. 4B) or 25 μM (FIG. 4C) for 24 hours, and the degree of DNA fragmentation measured by flow cytometry using the TUNEL assay.
The TUNEL assay examines DNA fragmentation using flow cytometry to detect DNA that is labeled with fluorescein dUTP compared to the total nuclear DNA content of the cell as measured using propidium iodide. Human HS578T breast cancer cells were treated with either 12.5 or 25 μM of the compound of Example 8 for 24 hours. As cells undergo apoptosis, DNA fragmentation occurs in a relatively intact nucleus, giving rise to a higher fluorescent intensity (x-axis) with stable staining by propidium iodide (y-axis).

[7] = system: human breast (HS578-T) cancer cells; assay: Mitochondrial membrane depolarization, JC-1 flow cytometry, breast cancer cells; assay type: cell-based; details: 25 μM, five hours following drug exposure
Experimental: FIGS. 5A-5C illustrate the effects of the compound of Example 8 on human breast cancer cells (HS578-T). Mitochondrial membrane depolarization was assessed by flow cytometry as measured by the fluorescence of cation, JC-1. Cells were exposed to 25 μM of the compound and fluorescence measured at: 0 hours (FIG. 5A), 2 hours (FIG. 5B) and 5 hours (FIG. 5C).
as §2, §3

## Cc1ccc(N=C(Nc2ccc(C)cc2)N2CCN(C/C=C/c3ccccc3)CC2)cc1 [Example 8, 1-[(N,N′-Di-p-tolyl)amidino]-(trans-1′-cinnamyl)piperizine]
[1]; pancreatic cancer cell line in mouse sub-renal capsule
  inhibition of tumor growth: greater than 95%
[1]; pancreatic implant, FIG. 2B
  effect on tumor growth (in words): dose-dependent and highly significant inhibition of tumor growth
[2]
  EC50: 95000 nM
[3]
  EC50: 2300 nM
caspase-3 (CPP-32)
  processed (activated) caspase-3 (in words): time-dependent increase in processed caspase-3
[4]
  JC-1 dye contained in mitochondria: 33%
[5]
  EC50: 1800 nM
[6]
  DNA fragmentation (TUNEL): pattern of DNA fragmentation characteristic of apoptosis
[7]
  JC-1 dye contained in mitochondria: 22%
